Consider three compounds from paper PMC12250628, “Pharmacokinetics of Cannabidiol in Rat Brain Tissue After Single-Dose Administration of Different Formulations” (Molecules, 2025).

Data set [1] in a line: Locomotor behavior and cognitive performance of the studied animals after CBD administration. In kind it is in vivo, rat. To be noted: rats, single oral dose of 10 mg/kg CBD.
On the set-up of data set [2]: method as in PMID 34330718, PMID 28861484. To be noted: phase I CBD metabolites; cited from earlier work.

With `C=C(C)[C@@H]1CCC(C)=C[C@H]1c1c(O)cc(CCCCC)cc1O` [CBD, cannabidiol], in data set [1], the “impact on locomotor behavior and cognitive performance” value is “no negative impacts on locomotor behavior and cognitive performance”.
On to `C=C(C)[C@@H]1CCC(C(=O)O)=C[C@H]1c1c(O)cc(CCCCC)cc1O` [Carrier 7-COOH-CBD, 7-carboxy-cannabidiol], for which the pharmacological activity result in data set [2] is “does not exhibit such activity anymore”.
With `C=C(C)[C@@H]1CCC(CO)=C[C@H]1c1c(O)cc(CCCCC)cc1O` [Carrier 7-OH-CBD, 7-hydroxy-cannabidiol], the pharmacological activity result in data set [2] is recorded as “pharmacologically active”.
